According to patent publication US10898483B2, “Methods for inducing an immune response by promoting premature termination codon read-through” (MOONSHOT PHARMA LLC, priority 2015, dated 2021):

Assays:
MC38 tumor cells = assay: MC38 subcutaneous tumor model in C57BL/6 mice, tumor volume by caliper; type: in vivo; parameters: Percent inhibition of tumor volume: concentration or dose not given beside the values; details: for Percent inhibition of tumor volume: negative values indicate an increase in tumor volume; for Mean tumor volume: PTC124 20 mg/kg i.p. QD, antibodies 10 mg/kg (anti-CD8 200 ug/mouse) BIW x 3 weeks
Description: Animals: Female 6-8 week old (estimated age at inoculation) C57BL/6 mice were obtained from Shanghai Lingchang Bio-Technology Co. Ltd (LC, Shanghai, China). The animals were housed at 20˜26° C. with a 12 hours light and 12 hours darkness cycle.
Cell Culture: MC38 tumor cells were maintained in vitro as a monolayer culture in DMEM medium supplemented with 10% fetal bovine serum at 37° C. in an atmosphere of 5% CO2 in air. The tumor cells were routinely subcultured twice weekly. Cells in an exponential growth phase were harvested and counted for tumor inoculation.
Therapeutic compounds: Ataluren (PTC124) was obtained from Selleck Chemicals (Houston, Tex.). Anti-PD-1 and anti-CTLA-4 antibodies were obtained from BioXCell as was an anti-CD8 antibody.
Tumor Inoculation: Each mouse was inoculated subcutaneously at the right lower flank region with MC38 tumor cells (1×10^6) in 0.1 mL of PBS for tumor development. The treatments were started when the mean tumor size reaches approximately 50 mm^3. The date of tumor cell inoculation was denoted as day 0.
Group assignment: Before grouping and treatment, all animals were weighed and the tumor volumes measured using a caliper. Tumor volume was used as numeric parameter to randomize selected animals into specified groups in order to minimize systematic error. The grouping was performed by using StudyDirector™ software (Studylog Systems, Inc. CA, USA). One optimal randomization design (generated by Matched distribution) showing minimal group to group variation in tumor volume was selected for group allocation.
After tumor cell inoculation, the animals were checked daily for morbidity and mortality as well as any effects of tumor growth and treatments on normal behavior such as mobility, visual estimation of food and water consumption, body weight gain/loss, eye/hair matting and any other abnormal effect. Tumor volumes were measured twice weekly at least in two dimensions using a caliper, and the volume expressed in mm^3 using the formula: V=0.5 a×b^2 where a and b are the long and short diameters of the tumor, respectively.

[1] = test system: CD3+ immune cells infiltrating tumor tissue; assay: Immunohistochemistry of sectioned tumor tissue for immune cell infiltration; type: in vivo, C57BL/6 mice; details: FIG. 4
Description: Immunohistochemistry (IHC): Formalin-fixed paraffin-embedded (FFPE) tissue from tumor samples were sectioned to 4 um. Antigen retrieval (AR) was conducted at 100° C., in EDTA buffer, at pH 9.0 for 20 min. Primary antibody (diluted with validated concentration), RT 60 min+ secondary antibody (ready-to-use), RT 60 min+Bond Polymer Refine Detection.

normal stop codons = details: cited from earlier work
[2] = phase-I clinical study in cystic fibrosis; cited from earlier work
[3] = test system: intratumoral T-cell infiltrates (CD45+, CD3+, CD8+, and CD4+ cells); assay: FACS analysis for intratumoral T-cell infiltrates; type: in vivo, C57BL/6 mice; details: FIG. 5
Description: FACS analysis: Tumor cells were isolated from each treatment group and FACS analysis performed according to methods which are well known in the art.

O=C(O)c1cccc(-c2noc(-c3ccccc3F)n2)c1 [PTC124, 3-[5-(2-Fluorophenyl)-1,2,4-oxadiazol-3-yl]benzoic acid]
Percent inhibition of tumor volume (MC38 tumor cells; Day 9): −0.96% | Mean tumor volume (MC38 tumor cells; Day 9 after inoculation (randomization)): 52.46 mm^3 | Mean tumor volume (MC38 tumor cells; Day 12): 72.34 mm^3 | Percent inhibition of tumor volume (MC38 tumor cells; Day 12): 13.94% | Mean tumor volume (MC38 tumor cells; Day 15): 128.58 mm^3 | Percent inhibition of tumor volume (MC38 tumor cells; Day 15): 1.20% | Mean tumor volume (MC38 tumor cells; Day 18): 231.26 mm^3 | Percent inhibition of tumor volume (MC38 tumor cells; Day 18): 19.87% | Mean tumor volume (MC38 tumor cells; Day 22): 388.94 mm^3 | Percent inhibition of tumor volume (MC38 tumor cells; Day 22): 18.64% | Mean tumor volume (MC38 tumor cells; Day 25): 617.86 mm^3 | Percent inhibition of tumor volume (MC38 tumor cells; Day 25): 22.82% | Mean tumor volume (MC38 tumor cells; Day 29): 988.37 mm^3 | Percent inhibition of tumor volume (MC38 tumor cells; Day 29): 21.47% | Mean tumor volume (MC38 tumor cells; Day 32): 1459.49 mm^3 | Percent inhibition of tumor volume (MC38 tumor cells; Day 32): 18.16% | Tumor inhibition (in words) (MC38 tumor cells; MC38 tumor-bearing C57BL/6 mice, Table 6, FIGS. 1-3): has tumor inhibition-promoting properties | CD3+ immune cells infiltrating tumor tissue (immunohistochemical analysis) [1]: significant numbers of CD3+ immune cells infiltrating tumor tissue | Ribosomal read-through of normal stop codons (normal stop codons): does not induce ribosomal read-through of normal stop codons | Read-through activity compared with aminoglycosides [2]: more efficient read-through activity than aminoglycosides | Tolerability [2]: generally well tolerated | Intratumoral T-cell infiltrates (CD45+, CD3+, CD8+, and CD4+ cells) by FACS [3]: increased intratumoral T-cell infiltrates
